System: NR1I2 gene
Assay: RT-PCR of NR1I2 messenger RNA in 8 neuroblastoma cell lines cultured with 5-aza-dCyd
Format: cell-based, human
Settings: 8 neuroblastoma cell lines lacking NR1I2 mRNA; 1 μM for 5 days
Text: Cell lines used were human-derived neuroblastoma cells SK-N-KS, SK-N-AS, SK-N-SH, SK-N-DZ, SH-SY5Y, MP-N-TS, MP-N-MS, KP-N-RT, KP-N-SIFA, KP-N-SILA, KP-N-TK, KP-N-YS, SMS-KCN, SMS-KAN, SJ-N-CG, NB-1, CHP134, IMR32, and GOTO (Saito-Ohara F, et al. Cancer Res., 63, 1876, 2003), which were derived from […] surgically excised samples. In addition, in order to obtain a material subjected to inhibition of DNA methylation, 5-aza-deoxycytidine (5-aza-dCyd) serving a DNA methyltransferase inhibitor was added to each cell at a concentration of 1 μM for 5 days during culture.
Under general culture conditions, 8 neuroblastoma cell lines lacking the expression of messenger RNA of NR1I2 gene were cultured with the addition of 5-aza-deoxycytidine (5-aza-dCyd) serving as a DNA methyltransferase inhibitor at a concentration of 1 μM for 5 days. The expression levels of messenger RNA of NR1I2 gene in the cells were compared with each other by RT-PCR (FIG. 4). As a control for the expression level obtained by RT-PCR, GAPDH was used.

Nc1ncn([C@H]2C[C@H](O)[C@@H](CO)O2)c(=O)n1 [5-aza-dCyd, 5-aza-deoxycytidine]
expression of messenger RNA of NR1I2 gene: expression of messenger RNA of NR1I2 genes was observed
